Results: EP0000322A1, “Compounds having an anti-depressive or tranquilizing activity, pharmaceutical compositions containing them, and processes and intermediates for their preparation” (priority 1977, dated 1979)
Structures can show the parent of a compound that is named as a salt. Where two headings read alike, the source gives them in different places.

Columns and labels:
[1] = tested on: neuronal uptake of 5-hydroxytryptamine and noradrenaline; test: Overall assessment of the uptake tests (selectivity NA versus 5-HT); design: species or system mouse; settings: summary of the results of Table I
[2] = tested on: neuronal uptake of noradrenaline; test: Inhibition of the uptake of 3H-NA in brain slices after in vivo (i.p.) administration; design: species or system mice; settings: for ED50: Mus musculus, ip, 0.5 h; for Inhibition of the uptake in vivo i.p. ED50 NA: 30 min
Protocol: (§1) The test method described in Europ. J. Pharmacol. 17, 107, 1972. This method involves the measurement of the decrease in the uptake of ^14C-5-hydroxytryptamine (^14C-5-HT) and ^3H- -noradrenaline (^3H-NA) in brain slices from mice after in vivo and in vitro administration of the test substance.
(§2) The test substances were administered intraperitoneally half an hour before the animals were killed. The midbrain was taken out, sliced and incubated in a mixture consisting of 0.2 nmole of ^14C-5-HT, 0.2 nmole of ^3H-NA and 11 µmole of glucose in 2 ml of Krebs Henseleit-buffer, pH 7.4 per 100 mg of brain slices. The incubation time was 5 minutes with 5 minutes of preincubation before the labelled amines were added. The slices were dissolved in Soluene and the amounts of radioactive amines taken u^p were determined by liquid scintillation. The doses producing 50 per cent decrease of the active uptake (ED50) of ^14C-5-HT and ^3H-NA were determined graphically from dose response curves. Active uptake is defined as that part of the radioactive uptake which is inhibited by a high concentration of cocaine.

[3] = tested on: neuronal uptake of 5-hydroxytryptamine; test: Inhibition of the uptake of 14C-5-HT in brain slices after in vivo (i.p.) administration; design: species or system mice; settings: for ED50: Mus musculus, ip, 0.5 h; for Inhibition of the uptake in vivo i.p. ED50 5-HT: 30 min
Protocol: as §1, §2

[4] = biological target: neuronal uptake of noradrenaline (Mus musculus, UniProt O55192); test: Inhibition of the uptake of 3H-NA in mouse midbrain slices, in vitro administration; type: cell-based; settings: slices from mouse brain (midbrain), 5 min preincubation with compound
Protocol: as §1
as §2, with “Active uptake is defined as that part of the radioactive uptake which is inhibited by a high concentration of cocaine.” left out
(§3) In the vitro administration method slices of mouse midbrain were preincubated for 5 minutes with solution of the compound to be tested and then incubated as described above. The concentration producing 50 per cent inhibition of the active uptake IC50 of ^14C-5-HT and 3-H-NA was determined graphically from dose response curves.

[5] = biological target: neuronal uptake of 5-hydroxytryptamine (Mus musculus, UniProt Q60857); test: Inhibition of the uptake of 14C-5-HT in mouse midbrain slices, in vitro administration; type: cell-based; settings: slices from mouse brain (midbrain), 5 min preincubation with compound
Protocol: as §1
as §2, with “Active uptake is defined as that part of the radioactive uptake which is inhibited by a high concentration of cocaine.” left out
as §3

[6] = i.p. half an hour before the animals were killed, midbrain slices, read-out: Inhibition of the uptake in vivo i.p. ED50 NA
[7] = i.p. half an hour before the animals were killed, midbrain slices, read-out: Inhibition of the uptake in vivo i.p. ED50 5-HT
[8] = i.p. half an hour before the animals were killed, midbrain slices
[9] = i.p. half an hour before the animals were killed, midbrain slices, hydrochloride
[10] = read-out: Inhibition of the uptake in vivo i.p. ED50 NA, i.p. half an hour before the animals were killed, midbrain slices
[11] = read-out: Inhibition of the uptake in vivo i.p. ED50 5-HT, i.p. half an hour before the animals were killed, midbrain slices

Sequence of neuronal uptake of noradrenaline (Mus musculus, UniProt O55192) (O55192 whole entry): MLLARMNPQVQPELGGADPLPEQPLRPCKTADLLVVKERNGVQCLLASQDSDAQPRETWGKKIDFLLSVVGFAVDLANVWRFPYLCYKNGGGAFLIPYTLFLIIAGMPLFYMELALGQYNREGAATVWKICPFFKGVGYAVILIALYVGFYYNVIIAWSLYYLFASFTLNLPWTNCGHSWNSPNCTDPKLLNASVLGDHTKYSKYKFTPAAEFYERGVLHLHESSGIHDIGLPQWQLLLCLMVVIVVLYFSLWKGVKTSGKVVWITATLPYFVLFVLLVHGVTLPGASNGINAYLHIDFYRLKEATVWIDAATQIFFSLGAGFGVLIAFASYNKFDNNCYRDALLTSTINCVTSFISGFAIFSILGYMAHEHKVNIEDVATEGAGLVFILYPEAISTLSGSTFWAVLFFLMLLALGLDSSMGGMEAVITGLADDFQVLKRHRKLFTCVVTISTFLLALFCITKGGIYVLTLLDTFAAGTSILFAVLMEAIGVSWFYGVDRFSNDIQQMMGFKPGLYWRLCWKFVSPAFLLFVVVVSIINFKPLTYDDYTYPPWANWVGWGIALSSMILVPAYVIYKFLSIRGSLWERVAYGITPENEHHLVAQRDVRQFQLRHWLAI
Sequence of neuronal uptake of 5-hydroxytryptamine (Mus musculus, UniProt Q60857) (Q60857 whole entry): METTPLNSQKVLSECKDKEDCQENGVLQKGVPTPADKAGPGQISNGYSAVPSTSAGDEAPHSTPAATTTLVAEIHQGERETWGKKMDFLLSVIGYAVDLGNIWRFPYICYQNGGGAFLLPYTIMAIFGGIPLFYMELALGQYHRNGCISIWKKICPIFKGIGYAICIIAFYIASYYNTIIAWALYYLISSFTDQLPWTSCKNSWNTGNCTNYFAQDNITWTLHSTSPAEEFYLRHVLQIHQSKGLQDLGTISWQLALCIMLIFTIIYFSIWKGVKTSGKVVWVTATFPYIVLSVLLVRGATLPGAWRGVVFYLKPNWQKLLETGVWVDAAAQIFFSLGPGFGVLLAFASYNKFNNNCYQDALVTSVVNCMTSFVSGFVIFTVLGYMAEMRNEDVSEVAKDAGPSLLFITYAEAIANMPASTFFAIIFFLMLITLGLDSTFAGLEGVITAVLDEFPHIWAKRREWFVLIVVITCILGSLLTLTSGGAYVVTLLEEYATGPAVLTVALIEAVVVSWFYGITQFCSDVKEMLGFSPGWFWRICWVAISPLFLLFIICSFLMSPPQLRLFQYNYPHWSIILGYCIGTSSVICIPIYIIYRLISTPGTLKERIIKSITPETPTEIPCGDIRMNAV

COc1ccc(C(CC(C)N)c2ccccc2)cc1 (single isomer, unassigned) [CPK 160]
activity on uptake of noradrenaline and 5-hydroxytryptamine (assessment in words) [1]: pronounced non-selective activity

CC(N)CC(c1ccccc1)c1ccc(F)cc1 (single isomer, unassigned) [CPK 163, (α)-3-(4-fluorophenyl)-1-methyl-3-phenylpropylamine oxalate]
ED50 [2, 6]: 32 µmol/kg
ED50 [3, 7]: 32 µmol/kg

CC(N)CC(c1ccccc1)c1ccc(Br)cc1 (single isomer, unassigned) [CPK 165, (α)-3-(4-bromophenyl)-1-methyl-3-phenylaropylamine maleate]
Inhibition of the uptake in vivo i.p. ED50 NA [2, 8]: 62 µmol/kg
Inhibition of the uptake in vivo i.p. ED50 5-HT [3, 8]: 61 µmol/kg

CC(N)CC(c1ccccc1)c1ccc(F)cc1 (single isomer, unassigned) [CPK 170, (β)-3-(4-fluorophenyl)-1--methyl-3-phenylpropylamine hydrochloride]
Inhibition of the uptake in vivo i.p. ED50 NA [2, 9]: 34 µmol/kg
Inhibition of the uptake in vivo i.p. ED50 5-HT [3, 9]: 37 µmol/kg
activity on uptake of noradrenaline and 5-hydroxytryptamine (assessment in words) [1]: pronounced non-selective activity

CC(N)CC(c1ccccc1)c1ccc(Br)cc1 (single isomer, unassigned) [CPK 171, (β)-3-(4-bromophenyl)-1-methyl-3-phenylpropylamine]
Inhibition of the uptake in vivo i.p. ED50 NA [2, 8]: 29 µmol/kg
Inhibition of the uptake in vivo i.p. ED50 5-HT [3, 8]: 29 µmol/kg
activity on uptake of noradrenaline and 5-hydroxytryptamine (assessment in words) [1]: pronounced non-selective activity

COc1ccc(C(CC(C)N)c2ccccc2)cc1 (single isomer, unassigned) [CPK 180, (α)-3-(4-methoxyphenyl)-1-methyl-3-phenylpropylamine]
ED50 [2, 10]: 78 µmol/kg
ED50 [3, 11]: 54 µmol/kg

CC(N)CC(c1ccccc1)c1cccc(Br)c1 (single isomer, unassigned) [CPK 184, (β)-3-(3-bromophenyl)-1-methyl-3-phenylpropylamine]
ED50 [2, 6]: 7.7 µmol/kg
ED50 [3, 7]: 9.9 µmol/kg
activity on uptake of noradrenaline and 5-hydroxytryptamine (assessment in words) [1]: pronounced non-selective activity

CC(N)CC(c1ccccc1)c1ccccc1Br (single isomer, unassigned) [CPK 185, (α)-3-(2-bromophenyl)-1-methyl-3-phenylpropylamine maleate]
Inhibition of the uptake in vivo i.p. ED50 NA [2, 8]: 4.1 µmol/kg
Inhibition of the uptake in vivo i.p. ED50 5-HT [3, 8]: 5.7 µmol/kg
activity on uptake of noradrenaline and 5-hydroxytryptamine (assessment in words) [1]: pronounced selective activity on uptake of noradrenaline

CC(N)CC(c1ccccc1)c1ccc(C(F)(F)F)cc1 (single isomer, unassigned) [CPK 195, (α)-1-methyl-3-(4-trifluoromethylphenyl)-3-phenylpropylamine maleate]
ED50 [2, 10]: > 98 µmol/kg
ED50 [3, 11]: 98 µmol/kg

CC(N)CC(c1ccccc1)c1ccccc1Br (single isomer, unassigned) [CPK 197, (β)-3-(2-bromophenyl)-1-methyl-3--phenyl-propylamine maleate]
Inhibition of the uptake in vivo i.p. ED50 NA [2, 8]: 28 µmol/kg
Inhibition of the uptake in vivo i.p. ED50 5-HT [3, 8]: >95 µmol/kg

COc1ccc(C(CC(C)N)c2ccccc2)cc1 (single isomer, unassigned) [CPK 198, (β)-3-(4-methoxyphenyl)-1-methyl-3-phenylpropylamine]
Inhibition of the uptake in vivo i.p. ED50 NA [2, 8]: 52 µmol/kg
Inhibition of the uptake in vivo i.p. ED50 5-HT [3, 8]: 33 µmol/kg
activity on uptake of noradrenaline and 5-hydroxytryptamine (assessment in words) [1]: pronounced selective activity on uptake of 5-hydroxytryptamine

CC(N)CC(c1ccccc1)c1ccc(C(F)(F)F)cc1 (single isomer, unassigned) [CPK 199, (β)-1-methyl-3-(4-trifluoromethylphenyl)-3-phenylpropylamine maleate]
Inhibition of the uptake in vivo i.p. ED50 NA [2, 8]: >98 µmol/kg
Inhibition of the uptake in vivo i.p. ED50 5-HT [3, 8]: >98 µmol/kg

CC(N)CC(c1ccccc1)c1ccccc1 (stereo not shown) [3,3-diphenyl-1-methylpropylamine fumarate, reference compound]
ED50 [2, 6]: 50 µmol/kg
ED50 [3, 7]: 75 µmol/kg

CC(N)CC(c1ccccc1)c1cccc(Br)c1 (stereo not shown) [CPK 155, 3-(3-bromophenyl)-1-methyl-3-phenylpropylamine]
ED50 [2, 6]: 49 µmol/kg
ED50 [3, 7]: > 95 µmol/kg

CNC(C)CC(c1ccccc1)c1ccc(Br)cc1 (stereo not shown) [CPK 187, N, 1-dimethyl-3(4-bromophenyl)--3-phenylpropylamine]
ED50 [2, 6]: > 98 µmol/kg
ED50 [3, 7]: 98 µmol/kg

CC(N)/C=C(\c1ccccc1)c1ccc(Br)cc1 (stereo not shown) [CPK 204, (E)-3-amino-1-(4-bromophenyl)-1-phenylbutene oxalate]
ED50 [2, 6]: 48 µmol/kg
ED50 [3, 7]: 40 µmol/kg

CC(N)/C=C(\c1ccccc1)c1cccc(Br)c1 (stereo not shown) [CPK 215, (E)-3-amino-1-(3-bromophenyl)-1-phenylbutene]
ED50 [2, 6]: 24 µmol/kg
ED50 [3, 7]: 96 µmol/kg

CC(N)/C=C(/c1ccccc1)c1cccc(Br)c1 (stereo not shown) [CPK 217, (Z)-3-amino-1-(3-bromophenyl)-1-phenylbutene]
ED50 [2, 6]: 35 µmol/kg
ED50 [3, 7]: 118 µmol/kg

CC(N)/C=C(/c1ccc(Br)cc1)c1cccnc1 (stereo not shown) [CPP 179]
ED50 [2, 6]: > 89 µmol/kg
ED50 [3, 7]: 89 µmol/kg

CN(C)CCCN1c2ccccc2CCc2ccc(Cl)cc21 [Chloroimipramine, reference compound]
IC50 [4]: 900 nM
ED50 [2, 10]: 150 µmol/kg

CC(N)C=C(c1ccc(Br)cc1)c1ccc(Br)cc1 (stereo not shown) [FLA 608, 3-amino-1,1-di(4-bromophenyl)-1--butene hydrochloride]
ED50 [2, 6]: 57 µmol/kg
ED50 [3, 7]: 62 µmol/kg

COc1ccc(C(=CC(C)N)c2ccc(OC)cc2)cc1.O=C(O)/C=C/C(=O)O (stereo not shown) [FLA 611, 3-amino-1,1-di(4-methoxyphenyl)--1-butene fumarate]
ED50 [2, 6]: 108 µmol/kg
ED50 [3, 7]: 63 µmol/kg
activity on uptake of noradrenaline and 5-hydroxytryptamine (assessment in words) [1]: pronounced selective activity on uptake of 5-hydroxytryptamine

CC(N)C=C(c1ccc(F)cc1)c1ccc(F)cc1 (stereo not shown) [FLA 613, 3-amino-1,1-di-(4-fluorphenyl)-1-butene fumarate]
ED50 [2, 6]: 106 µmol/kg
ED50 [3, 7]: 38 µmol/kg

COc1ccc(C(CC(C)N)c2ccc(OC)cc2)cc1 (stereo not shown) [FLA 614, 3,3-di-(4-methoxyphenyl)-1-methyl--propylamine fumarate]
ED50 [2, 6]: 100 µmol/kg
ED50 [3, 7]: 25 µmol/kg

CC(N)CC(c1ccc(F)cc1)c1ccc(F)cc1.Cl (stereo not shown) [FLA 615, 3,3-di-(4-fluorophenyl)-1-methylpropylamine hydrochloride]
ED50 [2, 6]: 57 µmol/kg
ED50 [3, 7]: 29 µmol/kg
activity on uptake of noradrenaline and 5-hydroxytryptamine (assessment in words) [1]: pronounced selective activity on uptake of 5-hydroxytryptamine

Cc1cccc(C(=CC(C)N)c2cccc(C)c2)c1 (stereo not shown) [FLA 618, 3-amino-1,1-di-(3-methylphenyl)-1-butene hydrochloride]
ED50 [2, 6]: 56 µmol/kg
ED50 [3, 7]: 93 µmol/kg

Cc1cccc(C(CC(C)N)c2cccc(C)c2)c1 (stereo not shown) [FLA 619, 1,3', 3"-trimethyl-3,3-diphenyl-propylamine oxalate]
ED50 [2, 6]: 48 µmol/kg
ED50 [3, 7]: 116 µmol/kg

CNCC=C(c1ccc(Br)cc1)c1cccnc1 [N-methyl-3-(4-bromophenyl)-3-(3-pyridyl)-allylamine E-isomer, N-methyl-3-(4-bromophenyl)-3-(3-pyridyl)-allylamine, reference compound]
Inhibition of the uptake in vivo i.p. ED50 NA [2, 8]: 25 µmol/kg

CNCC=C(c1ccc(Br)cc1)c1cccnc1 [N-methyl-3-(4-bromophenyl)-3-(3-pyridyl)-allylamine Z-isomer, N-methyl-3-(4-bromophenyl)-3-(3-pyridyl)-allylamine, reference compound]
Inhibition of the uptake in vivo i.p. ED50 NA [2, 8]: >102 µmol/kg
Inhibition of the uptake in vivo i.p. ED50 5-HT [3, 8]: 19 µmol/kg

(Z)-3-amino-1-(4-bromophenyl)-1--phenylbutene maleate [CPK 150]
IC50 [4]: 2000 nM
IC50 [5]: 3000 nM
Inhibition of the uptake in vivo i.p. ED50 NA [2, 8]: 96 µmol/kg
Inhibition of the uptake in vivo i.p. ED50 5-HT [3, 8]: >96 µmol/kg
